Measured values from patent US10160762B2, “6-alkyl dihydropyrazolopyrimidinone compounds as PDE2 inhibitors” (Merck Sharp & Dohme Corp., priority 2015, dated 2018).

Each compound was assayed against T1, human PDE2A1 (Homo sapiens, UniProt O00408) (assay: IMAP FP PDE assay, human PDE2A1). Conditions: Lab A; read-out: Human PDE2 Ki (nM) Lab A.
T1 construct: GST; purchased BPS Bioscience (San Diego, Calif.) 60020; host or cells: insect cells
Type: biochemical
How it was run: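 FP (IMAP) read after 60 min room-temperature reaction of insect-cell GST-human PDE2A1 with 50 nM FAM-cAMP plus 1000 nM cGMP (pH 7.2 Tris, Mg2+, DTT). Compounds titrated 3-fold over ten points. Apparent Ki derived assuming KM of 10,000 nM; enzyme at 20% substrate turnover.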

T1 sequence (O00408 1-920 isoform O00408-2): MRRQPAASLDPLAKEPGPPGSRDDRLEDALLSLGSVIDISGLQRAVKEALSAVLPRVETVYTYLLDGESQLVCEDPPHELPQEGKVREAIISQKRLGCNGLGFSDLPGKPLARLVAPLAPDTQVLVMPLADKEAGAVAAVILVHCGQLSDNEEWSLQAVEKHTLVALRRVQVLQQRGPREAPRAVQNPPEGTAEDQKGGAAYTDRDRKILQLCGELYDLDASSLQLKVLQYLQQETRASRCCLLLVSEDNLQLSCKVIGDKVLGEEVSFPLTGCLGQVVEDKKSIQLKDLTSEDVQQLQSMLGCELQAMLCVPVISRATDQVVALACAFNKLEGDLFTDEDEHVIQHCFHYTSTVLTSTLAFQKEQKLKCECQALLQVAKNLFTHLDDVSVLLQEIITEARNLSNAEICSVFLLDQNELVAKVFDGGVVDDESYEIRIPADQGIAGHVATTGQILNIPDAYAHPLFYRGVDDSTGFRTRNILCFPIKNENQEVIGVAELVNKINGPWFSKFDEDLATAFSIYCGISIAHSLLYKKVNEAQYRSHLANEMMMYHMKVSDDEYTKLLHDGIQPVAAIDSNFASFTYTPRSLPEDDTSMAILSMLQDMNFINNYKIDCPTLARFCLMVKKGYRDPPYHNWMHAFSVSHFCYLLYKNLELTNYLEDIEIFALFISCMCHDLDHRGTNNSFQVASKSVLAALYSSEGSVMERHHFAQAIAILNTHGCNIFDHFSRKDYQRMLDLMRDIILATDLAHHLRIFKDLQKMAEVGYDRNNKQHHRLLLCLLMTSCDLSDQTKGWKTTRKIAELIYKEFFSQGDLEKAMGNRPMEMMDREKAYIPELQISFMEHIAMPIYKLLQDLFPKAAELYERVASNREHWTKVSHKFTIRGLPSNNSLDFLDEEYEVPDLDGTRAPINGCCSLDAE

Ki	Compound
0.72 nM	COc1ccc(Cc2nc3c(c(CO)nn3C(C)c3ccc(C(F)(F)F)cc3)c(=O)[nH]2)cc1OC (racemic) [Example 297, 6-(3,4-Dimethoxybenzyl)-3-(hydroxymethyl)-1-{1-[4-(trifluoromethyl)phenyl]ethyl}-1,5-dihydro-4H-pyrazolo[3,4-d]pyrimidin-4-one]

Same assay, conditions: Lab B; read-out: Human PDE2 Ki (nM) Lab B

Compound	Ki
Cc1nc2c(c(C(N)=O)nn2C(C)c2ccc(C(F)(F)F)cc2)c(=O)[nH]1 (single isomer, unassigned) [Example 257]	115 nM
Cc1nc2c(c(C(F)F)nn2C(C)c2ccc(C(F)(F)F)cc2F)c(=O)[nH]1 (single isomer, unassigned) [Example 185, (R)- or (S)-3-(Difluoro-methyl)-1-(1-(2-fluoro-4-(trifluoro-methyl)phenyl)-ethyl)-6-methyl-1H-pyrazolo[3,4-d]pyrimidin-4(5H)-one]	303 nM
Cc1nc2c(c(CO)nn2C(C)c2ccc(SC(F)(F)F)cc2)c(=O)[nH]1 (single isomer, unassigned) [Example 22, (R)- or (S)-3-(Hydroxymethyl)-6-methyl-1-(1-(4-(trifluoromethylthio)phenyl)ethyl)-1H-pyrazolo[3,4-d]pyrimidin-4(5H)-one]	125 nM
Cc1nc2c(c(C(=O)O)nn2[C@@H](C)c2ccc(C(F)(F)F)cc2)c(=O)[nH]1 [Example 323, (S)-6-Methyl-4-oxo-1-(1-(4-(trifluoromethyl)phenyl)ethyl)-4,5-dihydro-1H-pyrazolo[3,4-d]pyrimidine-3-carboxylic acid]	798 nM
CC(=O)c1ccc(C(C)n2nc(CO)c3c(=O)[nH]c(C)nc32)cc1 (single isomer, unassigned) [Example 290]	> 2960 nM
CC(c1ccc(C(F)(F)F)cc1)n1nc(CO)c2c(=O)[nH]c(C3CC3)nc21 (single isomer, unassigned) [Example 299, (R)- or (S)-6-Cyclopropyl-3-(hydroxymethyl)-1-{1-[4-(trifluoromethyl)phenyl]ethyl}-1,5-dihydro-4H-pyrazolo[3,4-d]pyrimidin-4-one]	157 nM
Cc1nc2c(c(CO)nn2C2CCc3cc(C(F)(F)F)ccc32)c(=O)[nH]1 (single isomer, unassigned) [Example 102, (R)- or (S)-3-(Hydroxymethyl)-6-methyl-1-(5-(trifluoromethyl)-2,3-dihydro-1H-inden-1-yl)-1H-pyrazolo[3,4-d]pyrimidin-4(5H)-one]	> 2960 nM
Cc1nc2c(c(CC(F)(F)F)nn2C(c2ccc(C(F)(F)F)c(F)c2)C2(C)CC2)c(=O)[nH]1 (single isomer, unassigned) [Example 62, (R)- or (S)-1-((3-Fluoro-4-(trifluoromethyl)phenyl)(1-methylcyclopropyl)methyl)-6-methyl-3-(2,2,2-trifluoroethyl)-1H-pyrazolo[3,4-d]pyrimidin-4(5H)-one]	1100 nM
Cc1nc2c(c(C3CCCO3)nn2C(C)c2ccc(C(F)(F)F)cc2)c(=O)[nH]1 (single isomer, unassigned) [Example 71, (R, S)- or (R, R)- or (S, R)- or (S, S)-6-Methyl-3-(-tetrahydrofuran-2-yl)-1-(-l-(4-(trifluoromethyl)phenyl)ethyl)-1H-pyrazolo[3,4-d]pyrimidin-4(5H)-one]	111 nM
CNC(=O)c1nn(C(C)c2ccc(C(F)(F)F)cc2)c2nc(C)[nH]c(=O)c12 (single isomer, unassigned) [Example 264]	233 nM
Cc1nc2c(c(CO)nn2C(C)c2ccc(CC(F)(F)F)cc2)c(=O)[nH]1 (single isomer, unassigned) [Example 122, (R)- or (S)-3-(Hydroxymethyl)-6-methyl-1-(1-(4-(2,2,2-trifluoroethyl)phenyl)ethyl)-1H-pyrazolo[3,4-d]pyrimidin-4(5H)-one]	194 nM
CC(C)Cc1nc2c(c(CO)nn2C(C)c2ccc(C(F)(F)F)cc2)c(=O)[nH]1 (single isomer, unassigned) [Example 306, (S)- or (R)-3-(Hydroxy-methyl)-6-isobutyl-1-(1-(4-(trifluoromethyl)phenyl)ethyl)-1,5-dihydro-4H-pyrazolo[3,4-d]pyrimidin-4-one]	568 nM
CC(=O)NCc1nn(C(C)c2ccc(C(F)(F)F)cc2)c2nc(C)[nH]c(=O)c12 (single isomer, unassigned) [Example 276]	~1520 nM
Cc1nc2c(c(CO)nn2C(C)c2ccc(OC(F)F)cc2F)c(=O)[nH]1 (single isomer, unassigned) [Example 118, (R)- or (S)-1-(1-(4-(Difluoromethoxy)-2-fluorophenypethyl)-3-(hydroxymethyl)-6-methyl-1H-pyrazolo[3,4-d]pyrimidin-4(5H)-one]	323 nM
Cc1nc2c(c(CO)nn2C(C)c2ccc(C(F)(F)F)nn2)c(=O)[nH]1 (single isomer, unassigned) [Example 145, (R)- or (S)-3-(Hydroxymethyl)-6-methyl-1-(1-(6-(trifluoromethyl)pyridazin-3-yl)ethyl)-1H-pyrazolo[3,4-d]pyrimidin-4(5H)-one]	> 2960 nM
CC(c1ccc(C(F)(F)F)cc1)n1nc(C#N)c2c(=O)[nH]c(CC3CC3)nc21 (single isomer, unassigned) [Example 347]	1030 nM
Cc1nc2c(c(-c3nnco3)nn2C(C)c2ccc(C(F)(F)F)cc2)c(=O)[nH]1 (single isomer, unassigned) [Example 262]	395 nM

Continued, values first:

Ki	Compound
72 nM	Cc1nc2c(c(CC(C)O)nn2C(C)c2ccc(C(F)(F)F)cc2)c(=O)[nH]1 (single isomer, unassigned) [Example 245]
45 nM	Cc1nc2c(c(CC(F)(F)F)nn2C(c2ccc(C(F)(F)F)c(F)c2)C2(C)CC2)c(=O)[nH]1 (single isomer, unassigned) [Example 63, (S)- or (R)-1-((3-Fluoro-4-(trifluoromethyl)phenyl)(1-methylcyclopropyl)methyl)-6-methyl-3-(2,2,2-trifluoroethyl)-1H-pyrazolo[3,4-d]pyrimidin-4(5H)-one]
43 nM	Cc1nc2c(c(C(F)F)nn2C(c2ccc(C(F)(F)F)cc2)C(C)C)c(=O)[nH]1 (single isomer, unassigned) [Example 171, (R)- or (S)-3-(Difluoromethyl)-6-methyl-1-(2-methyl-1-(4-(trifluoromethyl)phenyl)propyl)-1H-pyrazolo[3,4-d] pyrimidin-4(5H)-one]
18 nM	Cc1nc2c(c(CO)nn2C(C)c2ccc(Cl)s2)c(=O)[nH]1 (single isomer, unassigned) [Example 154, (S)- or (R)-1-(1-(5-Chlorothiophen-2-yl)ethyl)-3-(hydroxymethyl)-6-methyl-1H-pyrazolo[3,4-d]pyrimidin-4(5H)-one]
12 nM	Cc1nc2c(c(CO)nn2C(C)c2ccc(C(F)(F)F)cc2I)c(=O)[nH]1 (single isomer, unassigned) [Example 141, (S)- or (R)-3-(Hydroxymethyl)-1-(1-(2-iodo-4-(trifluoromethyl-)phenyl)ethyl)-6-methyl-1,5-dihydro-4H-pyrazolo[3,4-d]pyrimidin-4-one]
9.5 nM	Cc1nc2c(c(C(F)F)nn2C2(c3ccc(C(F)(F)F)cc3)COC2)c(=O)[nH]1 [Example 163, 3-(Difluoromethyl)-6-methyl-1-(3-(4-(trifluoromethyl)phenyl)oxetan-3-yl)-1H-pyrazolo[3,4-d]pyrimidin-4(5H)-one]
8.5 nM	Cc1nc2c(c(CO)nn2C(C)c2ccc(C(F)(F)F)s2)c(=O)[nH]1 (single isomer, unassigned) [Example 156, (S)- or (R)-3-(Hydroxymethyl)-6-methyl-1-(1-(5-(trifluoromethyl)thiophen-2-yl)ethyl)-1H-pyrazolo[3,4-d]pyrimidin-4(5H)-one]
6.7 nM	Cc1nc2c(c(CC(F)(F)F)nn2C(C)c2ccc(OC(F)(F)F)cc2)c(=O)[nH]1 (single isomer, unassigned) [Example 67, (S)- or (R)-6-Methyl-3-(2,2,2-trifluoroethyl)-1-(1-(4-(trifluoromethoxy)phenyl)ethyl)-1H-pyrazolo[3,4-d]pyrimidin-4(5H)-one]
3.3 nM	CC(c1ccc(S(F)(F)(F)(F)F)cc1)n1nc(CO)c2c(=O)[nH]c(C3CC3)nc21 (single isomer, unassigned) [Example 315, (R)- or (S)-6-Cyclopropyl-3-(hydroxymethyl)-1-{1-[4-(pentafluoro-sulfanyl)-phenyl]-ethyl}-1,5-dihydro-4H-pyrazolo[3,4-d]pyrimidin-4-one]
3 nM	Cc1nc2c(c(CO)nn2C(C)c2ccc(OC(F)F)c(F)c2)c(=O)[nH]1 (single isomer, unassigned) [Example 113, (S)- or (R)-1-(1-(4-(Difluoromethoxy)-3-fluorophenyl)ethyl)-3-(hydroxymethyl)-6-methyl-1H-pyrazolo[3,4-d]pyrimidin-4(5H)-one]
2.5 nM	Cc1nc2c(c(-c3cn[nH]c3)nn2C(C)c2ccc(C(F)(F)F)cc2)c(=O)[nH]1 (single isomer, unassigned) [Example 237]
1.9 nM	Cc1nc2c(c(CO)nn2C(C)c2ccc(C(F)(F)F)cc2C)c(=O)[nH]1 (single isomer, unassigned) [Example 109, (S)- or (R)-3-(Hydroxymethyl)-6-methyl-1-(1-(2-methyl-4-(trifluoromethyl)phenyl)ethyl)-1H-pyrazolo[3,4-d]pyrimidin-4(5H)-one]
0.63 nM	Cc1nc2c(c(C(F)F)nn2C(C)c2ccc(C(F)(F)F)cc2F)c(=O)[nH]1 (single isomer, unassigned) [Example 186, (S)- or (R)-3-(Difluoro-methyl)-1-(1-(2-fluoro-4-(trifluoromethyl)phenyl)ethyl)-6-methyl-1H-pyrazolo[3,4-d]pyrimidin-4(5H)-one]
0.48 nM	Cc1nc2c(c(C(F)F)nn2C(C)c2ccc(OC(F)(F)F)c(F)c2)c(=O)[nH]1 (single isomer, unassigned) [Example 170, (S)- or (R)-3-(Difluoromethyl)-1-(1-(3-fluoro-4-(trifluoromethoxy)phenyl)ethyl)-6-methyl-1H-pyrazolo [3,4-d]pyrimidin-4(5H)-one]
